Our source for the IC50 and inhibition values is ChEMBL document CHEMBL4414569, “Myxochelin- and Pseudochelin-Derived Lipoxygenase Inhibitors from a Genetically Engineered Myxococcus xanthus Strain” (J Nat Prod, 2019).

Calls of active or inactive are those of the source. The calls are words filed in the database; no cut-off is given here.

For test [1], the target named is T1, Polyunsaturated fatty acid 5-lipoxygenase (Homo sapiens, UniProt P09917).
T1 sequence (P09917 whole entry): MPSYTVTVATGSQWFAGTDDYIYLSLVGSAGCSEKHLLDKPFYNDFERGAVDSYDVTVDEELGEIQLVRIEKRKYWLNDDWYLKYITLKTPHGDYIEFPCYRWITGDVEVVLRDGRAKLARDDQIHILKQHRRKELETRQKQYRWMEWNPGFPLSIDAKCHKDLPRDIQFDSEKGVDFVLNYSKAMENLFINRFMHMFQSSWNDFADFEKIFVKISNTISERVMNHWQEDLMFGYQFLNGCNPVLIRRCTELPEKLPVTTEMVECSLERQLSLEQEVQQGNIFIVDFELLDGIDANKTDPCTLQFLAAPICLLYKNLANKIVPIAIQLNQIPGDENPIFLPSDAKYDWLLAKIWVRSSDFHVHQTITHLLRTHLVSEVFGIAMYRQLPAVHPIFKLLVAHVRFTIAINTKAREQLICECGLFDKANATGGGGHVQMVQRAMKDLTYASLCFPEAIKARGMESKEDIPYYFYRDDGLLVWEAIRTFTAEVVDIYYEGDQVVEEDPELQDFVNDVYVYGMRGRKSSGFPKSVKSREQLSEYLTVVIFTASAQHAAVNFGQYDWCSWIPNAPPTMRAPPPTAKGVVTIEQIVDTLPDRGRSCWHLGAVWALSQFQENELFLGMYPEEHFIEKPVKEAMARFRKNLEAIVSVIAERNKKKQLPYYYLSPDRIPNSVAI
In words: Inhibition of recombinant human 5-lipoxygenase using arachidonic acid as substrate preincubated for 10 mins followed by susbtrate addition and measured after 10 mins by reverse phase HPLC method.

In test [2] the target is T2, Polyunsaturated fatty acid 5-lipoxygenase (Homo sapiens) (UniProt P09917).
T2 sequence (whole entry): T1 sequence (P09917 whole entry)
In words: Inhibition of recombinant human 5-lipoxygenase at <10 uM using arachidonic acid as substrate preincubated for 10 mins followed by susbtrate addition and measured after 10 mins by reverse phase HPLC method.

`O=C(NCCCC[C@H]1CN=C(c2cccc(O)c2O)N1)c1ccccc1O`: the IC50 (commonly the concentration that inhibits the measured activity by half) in test [1] came out at 2200 nM. For the molecule `NC[C@H](CCCCNC(=O)c1ccccc1O)NC(=O)c1cccc(O)c1O`, in test [1], the IC50 came to 10000 nM. Same read-out and setting: next, `O=C(NCCCC[C@@H](CO)NC(=O)c1cccc(O)c1O)c1cccc(O)c1O`: 1900 nM; `O=C(NCCCC[C@H]1CN=C(c2cccc(O)c2O)N1)c1c(O)cccc1F`: 1100 nM; `O=C(NCCCC[C@H]1CN=C(c2ccccc2O)N1)c1ccccc1O`: above 10000 nM. On the same count and under the same terms, for `NC[C@H](CCCCNC(=O)c1cccc(O)c1O)NC(=O)c1cccc(O)c1O` the value was 1400 nM; for `NC[C@H](CCCCNC(=O)c1cccc(O)c1O)NC(=O)c1ccccc1O`, 5600 nM. On to `NC[C@H](CCCCNC(=O)c1c(O)cccc1F)NC(=O)c1cccc(O)c1O`, for which the inhibition entry in test [2] was “inactive”. Besides, the IC50 in test [1] is above 10000 nM. As for `NC[C@H](CCCCNC(=O)c1cccc(O)c1O)NC(=O)c1c(O)cccc1F`, the IC50 in test [1] was found to be 9300 nM. For the molecule `NC[C@H](CCCCNC(=O)c1ccccc1O)NC(=O)c1ccccc1O`, in test [2], the inhibition entry was “inactive”. Besides, the IC50 in test [1] was above 10000 nM. As for `O=C(NCCCC[C@H]1CN=C(c2cccc(O)c2O)N1)c1cccc(O)c1O`, the IC50 in test [1] stood at 900 nM. With `O=C(NCCCC[C@H]1CN=C(c2ccccc2O)N1)c1cccc(O)c1O`, the IC50 in test [1] was 1500 nM. Same read-out and setting: for `O=C(NCCCC[C@H]1CN=C(c2c(O)cccc2F)N1)c1cccc(O)c1O` the value was 2200 nM.
